Structure (SMILES)	melting point [°C]
Cc1ccc(C2=C(c3ccc(S(C)(=O)=O)cc3)CCC2)cc1	118
Cc1cccc(C)c1NC(=O)c1ccc(C(N)=O)cc1	246 to 248
c1ccn(Nc2ccc(N3CCOCC3)nn2)c1	228
O=[N+]([O-])c1cnn2c(-c3ccc(C(F)(F)F)cc3)ccnc12	191 to 193
Cc1cc2cc(CN3CCCC3)cnc2cc1NC(=O)c1ccc(-c2ccc(F)cc2)cc1	182 to 187
CCOC(=O)c1ccc(/C=C(\C)c2ccc3c(c2)C(C)(C)CCN3C)cc1	100 to 101
COc1cc(S(N)(=O)=O)cc(C(=O)Cl)c1OC	153
CCCCCCCCNC(=O)/C=C\SC(=O)c1ccc(F)cc1	87 to 91
O=C(N1CCCC1)N1Cc2c(-c3noc(C4CC4)n3)ncn2-c2cccc(F)c21	220 to 222
COc1ccc(COC(=O)N[C@@H](CC(N)=O)C(=O)N[C@@H](Cc2ccccc2)[C@H](O)C(=O)N2CCC[C@H]2C(=O)NC(C)(C)C)cc1	95 to 97
Oc1ccc(-c2cccc(Cl)c2)cc1	98 to 101
COC(=O)c1nc(Cc2ccccc2)n2c1CN=C(c1ccccc1Cl)c1cc(Cl)ccc1-2	155 to 158
CCc1cn(C2OC(CN=[N+]=[N-])C(O)C2F)c(=O)[nH]c1=O (configuration not stated)	185 to 188
CCN(CC)CCCOc1ccc(C(=O)c2oc3ccccc3c2-c2ccccc2)cc1	122 to 126
COc1ccc(CN(Cc2ccc(OC)cc2)S(=O)(=O)c2ccc(N(CCS(C)(=O)=O)Cc3ccc(C)cc3)cc2)cc1	85.7 to 86.6
COCC(Oc1ccc(-n2nnc3cc(C(F)(F)F)ccc32)cc1)C(=O)O (configuration not stated)	139 to 142
Clc1ccc2[nH]c(Sc3ccccc3)c(C3=NCCN3)c2c1	178
O=[N+]([O-])CS(=O)(=O)c1cccc2c1sc1ccccc12	145 to 146
CCOC(=O)c1c(OC)cc(C(F)(F)F)nc1C(F)(F)F	58.5 to 59.5

Structure (SMILES)	melting point [°C]
CC1(CCN2C(=O)c3cccc([N+](=O)[O-])c3C2=O)OCCO1	90
CCOc1nn(-c2ccc(C(F)(F)F)cn2)cc1CCCOc1ccc(CCC(=O)O)c(OC(C)C)c1	104 to 105
COc1ccc(C2(C(C)NCc3ccncc3)CCC2)cc1 (configuration not stated)	110 to 113
COc1cc(F)ccc1Oc1c(Cl)nc(-c2ncccn2)nc1NS(=O)(=O)c1ccc(C(C)(C)C)cc1	225 to 227
CCOC(=O)C(C(=O)CCC(C)C)C1c2ccccc2C(=O)N1c1ccc2ccc(F)nc2n1 (configuration not stated)	140
O=C(O)CCCOc1cccc(CCCCCCOc2ccc3c(c2CCCc2ccccc2)OCCC3=O)c1CCC(=O)O	104 to 106
O=c1[nH]c2cc(C(F)(F)F)ccc2n1C1CCNCC1	198
COc1ccc(CCN(C)c2cc(C)sc2CO)cc1OC	149
Cc1ccccc1C(=O)COc1c(C(=O)c2ccc(Cl)c(C)c2Cl)c(C)nn1C	154
COC(=O)c1ccc(OCCCN(C(=O)CCC(=O)Nc2ccc(Cl)cc2)c2ccc(Cl)cc2)cc1	128 to 130
Cc1c(Nc2c(C#N)cnc3sc(CCC(=O)N4CCCC4)cc23)ccc2[nH]ccc12	175
CC(=O)Nc1ccc(F)cc1C(=O)O	168 to 170
COC(C)n1cc(C2=C(c3cn(C(C)OC)c4ccccc34)C(=O)NC2=O)c2ccccc21 (configuration not stated)	222 to 224
NC(=O)c1cc(C(=O)CN(Cc2ccccc2)Cc2ccccc2)ccc1OCCCCOC1CCCCO1 (configuration not stated)	118 to 123
CC1CC(=O)NN=C1c1ccc(NCCN)c([N+](=O)[O-])c1 (configuration not stated)	162 to 164
[N-]=[N+]=NCC(=O)Nc1ccc(S(=O)(=O)c2cccc(Cl)c2)cc1	125 to 126
O=C1CCn2c(-c3ccccc3)nc3c(Cl)ccc1c32	206 to 209
C=CCNc1nc(N(CC=C)CC=C)nc2ccc(Cl)cc12	73 to 74
